From ChEMBL document CHEMBL1201862, “PubChem BioAssay data set” (2004) come the findings set out here.

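Compound exposure: 48 hours, 5 concentrations, 96-well plates. GI50 is the concentration that inhibits growth by half.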 Activity calls are given as the source filed them. Cut-off read from the data, not from the text of the source: active = GI50 up to about 1.1 µM and inactive = higher.

Some test systems named below: 786-0; CAKI-1; EKVX; HCT-15; HL-60; HOP-62; Hs-578T; KM12; MDA-MB-231; NCI-H460; NCI-H522; OVCAR-4; OVCAR-8; SF-268; SF-539; SN12C; SNB-19; SR; U-251; UACC-257.
Holding throughout (assay): NCI-60 cell line screen, 48 h

Turning to `O=C1C=CC(=O)c2c1ccc1c3ccccc3n(Cc3cccc([N+](=O)[O-])c3)c21`, the GI50 in the test with 786-0 is 22.8 µM (inactive); in the test with CAKI-1, 14.7 µM (inactive); in the test on EKVX it was > 100 µM (inactive); in the test with HCT-15 it was 21.5 µM; in the test with HL-60, 6.9 µM (inactive); in the test with HOP-62 it was > 100 µM (inactive). For the same molecule, the GI50 was > 71.9 µM (inactive) with Hs-578T; > 100 µM (inactive) with KM12; 24.2 µM (inactive) with MDA-MB-231; > 95.9 µM (inactive) in the test with NCI-H460; 18.8 µM (inactive) in the test on NCI-H522; 23.8 µM (inactive) in the test with OVCAR-4. The GI50 is 30.4 µM (inactive) in the test on OVCAR-8; 39.6 µM (inactive) in the test on SF-268; > 54 µM (inactive) in the test on SF-539; 21.8 µM (inactive) in the test with SN12C; > 100 µM (inactive) in the test with SNB-19; 12.8 µM (inactive) with SR. For the same molecule, the GI50 was > 89.5 µM (inactive) with U-251 and 23 µM (inactive) in the test on UACC-257.
Turning to `Cn1c(CC(O)c2nc3ccccc3n2C)nc2ccccc21` (stereo not drawn), the GI50 with 786-0 was > 44.6 µM (inactive); with CAKI-1, > 100 µM (inactive); in the test on EKVX it was > 100 µM (inactive); in the test with HCT-15 it was above 16 µM; in the test on HL-60 it was 0.413 µM (active); in the test with HOP-62 it was > 12.3 µM (inactive). Moreover, the GI50 with Hs-578T was > 14.5 µM (inactive); in the test with KM12, > 100 µM (inactive); with MDA-MB-231, > 34.8 µM (inactive); with NCI-H460 it was > 27.4 µM (inactive); in the test on NCI-H522, > 6.1 µM (inactive); in the test with OVCAR-4 it was > 23.3 µM (inactive). The GI50 in the test on OVCAR-8 was > 27 µM (inactive); in the test with SF-268, > 16.2 µM (inactive); in the test with SF-539, > 39.1 µM (inactive); in the test with SN12C, > 36 µM (inactive); in the test with SNB-19, > 36.6 µM (inactive); with SR, > 100 µM (inactive). Besides, the results for the GI50 with U-251 and in the test on UACC-257 were > 28 µM (inactive) and > 19.1 µM (inactive), respectively.
Regarding `CC1C2Cc3ccc(O)cc3C1(C)CCN2C` (stereo not drawn), the GI50 is > 100 µM (inactive) with 786-0; > 100 µM (inactive) in the test with CAKI-1; > 100 µM (inactive) with EKVX; above 100 µM with HCT-15; > 100 µM (inactive) in the test with HL-60; > 100 µM (inactive) in the test on HOP-62. Besides, the GI50 in the test on Hs-578T, in the test with KM12, in the test on MDA-MB-231, in the test on NCI-H460, in the test with NCI-H522 and in the test with OVCAR-4 was > 100 µM (inactive) throughout. The GI50 with OVCAR-8, in the test with SF-268, in the test on SF-539, in the test on SN12C, in the test with SNB-19 and with SR was > 100 µM (inactive) each time. The GI50 in the test on U-251 and in the test with UACC-257 was > 100 µM (inactive) throughout.
Consider `Oc1ccc(-c2c3ccccc3c(-c3ccc(OCCBr)cc3)c3ccccc23)cc1`, for which the GI50 is 21.9 µM (inactive) with 786-0; 27.4 µM (inactive) in the test on CAKI-1; 32.9 µM (inactive) in the test with EKVX; 30.7 µM in the test on HCT-15; 47.5 µM (inactive) in the test on HL-60; 24 µM (inactive) in the test with HOP-62. The GI50 with Hs-578T was 24.3 µM (inactive); in the test with KM12 it was 29.4 µM (inactive); in the test on MDA-MB-231 it was 23.6 µM (inactive); with NCI-H460, 52.6 µM (inactive); in the test on NCI-H522 it was 35 µM (inactive); in the test on OVCAR-4, 24.2 µM (inactive). Further, the GI50 with OVCAR-8 was 22 µM (inactive); in the test on SF-268, 56.1 µM (inactive); in the test on SF-539 it was 13.9 µM (inactive); in the test on SN12C it was 22.1 µM (inactive); with SNB-19, 29.4 µM (inactive); with SR, 31.8 µM (inactive). The GI50 was 32.3 µM (inactive) with U-251 and 24.2 µM (inactive) with UACC-257.
`Cc1ccc(-c2cn3c(nc4ccccc43)c(-c3ccccc3)n2)cc1`: the GI50 is 15.1 µM (inactive) in the test on 786-0; 37.7 µM (inactive) with CAKI-1; > 100 µM (inactive) with EKVX; above 100 µM with HCT-15; > 100 µM (inactive) with HL-60; 15.6 µM (inactive) in the test on HOP-62. In addition, the GI50 with Hs-578T was 15.3 µM (inactive); in the test with KM12, > 100 µM (inactive); in the test on MDA-MB-231, > 100 µM (inactive); with NCI-H460 it was > 94.4 µM (inactive); in the test with NCI-H522, 20.5 µM (inactive); in the test with OVCAR-4, > 80.7 µM (inactive). Further, the GI50 in the test with OVCAR-8 is 27.9 µM (inactive); with SF-268 it was > 45.3 µM (inactive); with SF-539, 58.2 µM (inactive); in the test with SN12C, > 100 µM (inactive); in the test on SNB-19, 16.7 µM (inactive); in the test on SR it was > 100 µM (inactive). Also, the figures for the GI50 with U-251 and in the test with UACC-257 were 18.8 µM (inactive) and > 100 µM (inactive), respectively.
Consider `CN(C)C=O.O=C(Nc1nnn[nH]1)c1nc(O)cc(-c2ccccc2)n1`, for which the GI50 is > 100 µM (inactive) in the test with 786-0; > 100 µM (inactive) in the test on CAKI-1; > 100 µM (inactive) in the test with EKVX; above 100 µM in the test with HCT-15; > 100 µM (inactive) in the test on HL-60; > 100 µM (inactive) with HOP-62. In addition, the GI50 in the test with Hs-578T, in the test with KM12, with MDA-MB-231, in the test with NCI-H460, in the test with NCI-H522 and in the test on OVCAR-4 was > 100 µM (inactive) in each case. The GI50 with OVCAR-8, in the test with SF-268, in the test with SF-539, in the test on SN12C, in the test on SNB-19 and with SR was > 100 µM (inactive) throughout. In addition, the GI50 in the test on U-251 and with UACC-257 was > 100 µM (inactive) each time.
On to `COC(=O)C(/C(=N/NC(=O)c1ccncc1)C(=O)Nc1ccccc1OC)c1nc2ccc(Cl)cc2nc1O` (stereo not drawn), for which the GI50 with 786-0 was > 100 µM (inactive); with CAKI-1, > 100 µM (inactive); in the test on EKVX, 77.8 µM (inactive); in the test on HCT-15, 63.5 µM; in the test with HL-60 it was > 100 µM (inactive); in the test with HOP-62, > 100 µM (inactive). Further, the GI50 in the test with Hs-578T was > 100 µM (inactive); in the test on KM12, 92 µM (inactive); in the test on MDA-MB-231 it was > 100 µM (inactive); in the test with NCI-H460, > 100 µM (inactive); in the test with NCI-H522, > 100 µM (inactive); with OVCAR-4, 55 µM (inactive). In addition, the GI50 in the test on OVCAR-8 was > 100 µM (inactive); with SF-268 it was > 100 µM (inactive); in the test with SF-539, > 100 µM (inactive); in the test on SN12C, > 100 µM (inactive); in the test on SR, 0.78 µM (active); with U-251, > 100 µM (inactive). Moreover, in the test with UACC-257, the GI50 was > 100 µM (inactive).
In the case of `CCCCC1C=Cn2c(=O)oc3c(OC(C)C)c(C)c(O)c1c32` (stereo not drawn), the GI50 was 1.16 µM (inactive) in the test on 786-0; 0.409 µM (active) in the test on CAKI-1; 2.48 µM (inactive) in the test with EKVX; 0.357 µM in the test on HCT-15; 0.46 µM (active) in the test with HL-60; 0.0497 µM (active) in the test with HOP-62. Besides, the GI50 with Hs-578T is 0.684 µM (active); in the test on KM12, 1.49 µM (inactive); in the test with MDA-MB-231, 1.87 µM (inactive); with NCI-H460, 0.652 µM (active); in the test on NCI-H522, 1.24 µM (inactive); with OVCAR-4, 0.601 µM (active). For the same molecule, the GI50 was 1.73 µM (inactive) in the test on OVCAR-8; 0.796 µM (active) with SF-268; 2.49 µM (inactive) with SF-539; 1.37 µM (inactive) in the test on SN12C; 0.323 µM (active) with SNB-19; 0.548 µM (active) with SR. In addition, the GI50 with U-251 is 1.14 µM (inactive); in the test on UACC-257, 2.44 µM (inactive).
Consider `COc1ccc(OC)c(NCC(=O)Nn2cnc3ccc(S(=O)(=O)Nc4cc(OC)ccc4OC)cc3c2=O)c1`, for which the GI50 in the test with 786-0 is > 100 µM (inactive); with CAKI-1, > 100 µM (inactive); in the test on EKVX, > 100 µM (inactive); in the test on HCT-15, above 100 µM; with HL-60 it was 16.2 µM (inactive); in the test with HOP-62, > 100 µM (inactive). The GI50 in the test on Hs-578T was > 100 µM (inactive); in the test on KM12 it was 46 µM (inactive); in the test on MDA-MB-231 it was > 100 µM (inactive); in the test with NCI-H460 it was 86.3 µM (inactive); in the test with NCI-H522, 40 µM (inactive); with OVCAR-4 it was > 100 µM (inactive). Moreover, the GI50 is > 100 µM (inactive) with OVCAR-8; > 100 µM (inactive) in the test on SF-268; > 100 µM (inactive) in the test on SF-539; > 100 µM (inactive) with SN12C; > 100 µM (inactive) in the test on SNB-19; 25.4 µM (inactive) with SR. Moreover, the GI50 in the test on U-251 was > 100 µM (inactive); with UACC-257, 82.6 µM (inactive).
With `CC(=O)c1cc2c(Br)cccc2oc1=O`, the GI50 in the test on 786-0 was > 100 µM (inactive); with CAKI-1, > 100 µM (inactive); with EKVX, > 100 µM (inactive); in the test on HCT-15 it was above 100 µM; in the test on HL-60, > 100 µM (inactive); in the test on HOP-62, > 100 µM (inactive). Moreover, the GI50 with Hs-578T, with MDA-MB-231, with NCI-H460, in the test on NCI-H522, in the test on OVCAR-4 and in the test on OVCAR-8 was > 100 µM (inactive) each time. Further, the GI50 is 95.5 µM (inactive) in the test on SF-268; > 100 µM (inactive) with SF-539; > 100 µM (inactive) in the test with SN12C; > 100 µM (inactive) in the test on SNB-19; 46.8 µM (inactive) in the test on SR; 63.4 µM (inactive) in the test with U-251. Also, the GI50 in the test with UACC-257 is > 100 µM (inactive).
